According to PMC8176454, “Synthesis and Assessment of Novel Probes for Imaging Tau Pathology in Transgenic Mouse and Rat Models” (ACS Chemical Neuroscience, 2021):

How the values were obtained:
[1] = target: T1, heparin-induced synthetic recombinant tau fibrils (tau-441 human) (Homo sapiens, UniProt P10636); experiment: Fluorescence quenching assay of compound binding to heparin-induced synthetic recombinant tau fibrils; details: read-out: Kd of compound binding to heparin-induced synthetic tau fibrils determined by fluorimetry
T1 construct: purchased Eurogentec
Procedure: All compounds were assessed for their ability to bind to synthetic recombinant tau fibrils using a fluorescence quenching assay[20] […] Binding affinities for some compounds (141, 164, 166, 169, 171, and 207) could not be assessed with this assay because of negligible changes in fluorescence intensity. […] This compound was then selected for further characterization and development.
All reagents and solvents were used as supplied or purified using standard procedures as necessary. Analytical separation was conducted on an Ultimate 3000 HPLC system (Thermo Scientific). [^11C]CO2 was produced via the ^14N(p,α) nuclear reaction using GE PETtrace cyclotron applying 16.5 MeV protons onto 0.5% oxygen in nitrogen gas. [^11C]Methyl iodide was synthesized on a GE Medical Systems MeI MicroLab. A F-4500 FL spectrophotometer (Chemical Engineering department, University of Cambridge) was used to do fluorescence scan of all of the compounds mixed with tau fibrils. Excitation wavelength was 365 nm, and emission was scanned from 400 to 600 nm. With parameters, setting excitation slit was 5.0 nm, emission slit was 20.0 nm, PMT voltage was 950 V, and response was 0.5 s.
Monomeric tau (tau-441 human) lyophilized powder was obtained from Eurogentec. Tau monomers (100 μM) were prepared in 20 mM BES buffer (pH 7.4 with 25 mM NaCl and 2 mM dithiothreitol and incubated at 56 °C for 10 min. After being cooled to room temperature in a water bath, heparin (25 μM) and a protease inhibitor mix were added and incubated at 37 °C for 10 days. […]
Binding affinity of all compounds with tau fibrils […]
All other compounds binding affinit ies towards tau fibrils
were then tested by fluorescent binding assay. […]

tau fibrils [2] = target: T2, tau fibrils (Homo sapiens, UniProt P10636); experiment: Microscale thermophoresis screen for interaction with tau fibrils; format: binding; details: 1 µM and 1 nM compound mixed with 100 nM tau fibrils
T2 construct: purchased Eurogentec
Procedure: buffer) for 1 h at room temperature. Following 3 washes in PBS/0.1% Triton X-100, 50 µM LM229 (diluted in 1:1 blocking buffer/ethanol) was then added for 1 h at room temperature. Nuclei were stained with DAPI (0.1mg/ml for 10 min), washed and tissues mounted in FluorSaveTM prior to analysis using fluorescence […]
Binding affinity of all compounds with tau fibrils
Microscale Thermophoresis was first used to screen whether there were interaction between the compounds and tau fibrils. For this procedure 200 µL, 5 µM tau fibrils were mixed with 200 µL, 10 µM NT647-NHS dye and then incubated in dark for 30 minutes. Further dialysis (18 hours, changing the buffer after the first 4 hours) was used to remove the free dye giving a 2.5 µM solution of label led protein. The label ling ratio of dye unit per tau monomer was then tested by a method recommended by the instrument manufacturer, NanoTemper Technologies, which is based on a cal ibration curve. The 2.5 µM tau fibril solution was then aliquoted prior to use. The unused samples were frozen at -20 °C. MST measurements were conducted using Monolith NT.115 instrument (NanoTemper Technologies, Germany) at 25 °C. Assays were conducted at 40 % MST Power and 90 % IR-laser power. With each compound, two concentrations (1µM and 1nM) were used to mix with 100nM tau fibrils and then loaded to the MST instrument to read out the MST data curve. Only three compounds 166, 164 […]
All other compounds binding affinit ies towards tau fibrils were then tested by fluorescent binding assay.
(§1) Binding to cultured neurons from P301S tau transgenic mice
DRG were incubated with the indicated concentrations of LM229 or PBB3 for 20 minutes at room temperature, washed 3 times in PBS, and imaged on a Leica DMI 4000B microscope using a Leica DFC3000 G camera and the Leica application suite 4.0.0.11706. Fluorescence intensity was measured in 10-16 neurons each from 3 independent cultures using Image J (imagej.nih.gov/ij/). Results shown are mean ± SD. Non linear least squares curve fitting was applied using http://faculty.gvsu.edu/carlsont/232lab/nonlin2.html. […]

[3] = test system: 3R tau151-391 aggregates in cortical sections from SHR24 rats; experiment: Binding to SHR24 transgenic rat brain sections; details: SHR24 (3R) vs SHR72 (4R) brain tissue
Description: (§2) Since future PET studies for development of these compounds would require kinetic modeling for their assessment in vivo, we tested their performance in tau transgenic rats. Rat brains and blood volumes are about 6- and 10-fold larger, respectively, than those of mice and thus enable higher resolution imaging and ample volume for repeated blood sampling. We used two transgenic rat lines expressing human-truncated tau comprising the proline-rich region and either three microtubule binding domains (3R tau151-391, SH24)[28] or four microtubule binding domains (4R tau151-391, SHR72).[29] […] However, compared to the SHR24 rat brain sections, there were less inclusions detected, which seems to indicate the compounds have preferential binding toward the three repeat forms of tau in these rat models.
(§3) Fresh frozen rat brain coronal sections (10 μm) were stored on slides at −80 °C until use. Sections were fixed in ice cold acetone for 10 min and air-dried and then rehydrated twice for 5 min with buffer (10 mM PBS with 0.1% Triton X-100) before application of 5% bovine serum albumin for 1 h and two more 5 min buffer washes. Primary monoclonal antibody AT8 (Thermo MN1020, 1:1000) was added overnight at 4 °C, followed by 1 h incubation with a mixture of secondary AlexaFluor555 goat anti-mouse antibody (1:1000) and 50 μM PBB3 or LM229 in 50:50 ethanol/buffer. Following two 5 min washes in buffer, the slides were air-dried and cover-slipped using Fluorsave before analysis. The green autofluorescence of PBB3 and LM229 was visualized using a 488 nm filter and fluorescence of AT8 using a 568 nm filter on a Leica DM6000 microscope.

[4] = target: T3, 3R tau151-391 aggregates in cortical sections from SHR24 rats (Homo sapiens, UniProt P10636); experiment: Binding to SHR24 transgenic rat brain sections; details: 50 μM, colocalization with AT8
T3 construct: tissue AXON Neuroscience; host or cells: brain (cortex) sections of SHR24 transgenic rats
Description: as §2, §3

tau fibrils [5] = target: tau fibrils; design: method as in PMID 28087578; details: read-out: Kd, previously reported value; cited from earlier work
[6] = target: T4, 4R tau151-391 aggregates in brainstem sections from SHR72 rats (Homo sapiens, UniProt P10636); experiment: Binding to SHR72 transgenic rat brain sections; details: 50 μM, colocalization with AT8
T4 construct: tissue AXON Neuroscience; host or cells: brain (brainstem) sections of SHR72 transgenic rats
Description: as §2
Fresh frozen rat brain coronal sections (10 μm) were stored on slides at −80 °C until use. Sections were fixed in ice cold acetone for 10 min and air-dried and then rehydrated twice for 5 min with buffer (10 mM PBS with 0.1% Triton X-100) before application of 5% bovine serum albumin for 1 h and two more 5 min buffer washes. […] The green autofluorescence of PBB3 and LM229 was visualized using a 488 nm filter and fluorescence of AT8 using a 568 nm filter on a Leica DM6000 microscope.

[7] = target: T5, tau aggregates in brain of P301S tau mice (Homo sapiens, UniProt P10636, P618S); experiment: Ex vivo mouse study: i.v. injection, brain sections imaged after 1 h; format: in vivo; details: i.v. injection 1 h prior, colocalization with AT8
T5 construct: from tissue; host or cells: brain of transgenic P301S tau mice (C57Bl/6 background)
Procedure: We next looked at the ability of LM229 to cross the blood–brain barrier (BBB), a key property of any viable neuro-radiotracer. LM229 was injected intravenously (i.v.) (1 mg/kg weight), and after 1 h, WT and P301S tau mice were perfused-fixed and brain sections were imaged under a fluorescence microscope. […] However, we await a comparison of PBB3 and LM229 by PET imaging to determine their relativity properties as in vivo imaging probes.
Mice were injected intravenously (i.v.) with 50 μM LM229 or PBB3 (DMSO) diluted in 50:50 ethanol/PBS. Animals were then perfused (4% PFA) 1 h post-i.v.

[8] = test system: tau aggregates in DRG neurons from P301S tau mice; experiment: Fluorescence binding to cultured DRG neurons from P301S tau transgenic mice; format: cell-based, mouse; details: IC50 could not be derived because of low affinity
Procedure: P301S tau mice with aggregated tau in the brain also express aggregated tau in DRG neurons.[24]−[26] […] To estimate the apparent affinity of LM229 to tau aggregates directly in living neurons, we imaged live neurons after 20 min incubation with various concentrations of LM229 (Figure 4A). […] LM229 binding was specific to neurons with aggregated tau, as detected with the AT100 antibody[18],[22],[23],[26] (Figure 4D). […] Although PBB3 also bound to DRG neurons with tau aggregates at 30–100 μM, it was not possible to derive an IC50 value because of its low affinity in this assay (Supporting Information, Figure S2). […] The shift from nanomolar to micromolar affinity between binding to heparin tau fibrils and tau aggregates in P301S tau neurons may reflect the different environment and assay conditions or the different conformations that tau aggregates assume in neurons compared to heparin–tau complexes.[27]
Neurons were prepared from phenotypic end stage 5–7 month old P301S tau mice and cultured as described previously.[24] For live staining, neurons cultured for 2 days were washed in PBS and incubated with various concentrations of LM229 for 20 min at room temperature. After three washes in PBS, neurons were imaged on a Leica DMI 4000B microscope using a DFC3000 G camera and application suite 4.0.0.11706. The dead cell stain Propidium iodide (1 μg/mL) was added to ensure that only live cells were imaged. Phase contrast images were taken to show viable neurons. For fixed cell staining, neurons were fixed for 20 min at room temperature in 4% paraformaldehyde, washed in PBS, and permeabilized in PBS containing 0.3% Triton X-100. LM299 was added as described for live cells, and cells were probed with AT100 (1:1000, MN1060) followed by anti-mouse AlexaFluor568 secondary antibody. Cultures were co-stained with the nuclear dye DAPI (blue) to reveal total cells. […]
as §1
DRG were incubated with the indicated concentrations of LM229 or PBB3 for 20 minutes at room temperature, washed 3 times in PBS, and imaged on a Leica DMI 4000B microscope using a Leica DFC3000 G camera and the Leica application suite 4.0.0.11706. Fluorescence intensity was measured in 10-16 neurons each from 3 independent cultures using Image J (imagej.nih.gov/ij/). Results shown are mean ± SD. Non linear least squares curve fitting was applied using http://faculty.gvsu.edu/carlsont/232lab/nonlin2.html. No Km value was […]
Figure S2: Binding of LM229 and PBB3 to DRG neurons with tau aggregates […]
(1 picture or pasted object on this page, not shown here)

[9] = In vivo PET studies in wild-type and P301S tau mice; design: species or system mouse; details: for Maximum brain uptake (%ID/g max): whole brain
Description: We then performed preliminary in vivo PET studies with [^11C]L229 in both WT and transgenic P310S tau mice. […] Further PET studies are required to fully characterize the in vivo pharmacokinetics of the radiotracer in both mice and rats.
These studies were regulated under the Animals (Scientific Procedures) Act 1986 Amendment Regulations 2012 following ethical review by the University of Cambridge Animal Welfare and Ethical Review Body (AWERB). The mice were anesthetized with 5% isoflurane, and general anesthesia was maintained using 1.5% isoflurane. The anesthetized mice were placed prone on the bed of a microPET Focus-220 scanner (Concorde Microsystems, Knoxville, TN). Body temperature was maintained at 37 °C using a heating blanket connected to a rectal thermistor probe. Blood oxygen saturation as well as heart rate and breathing rate were monitored and maintained within normal limits using a noninvasive mouseOX pulse-oximeter sensor (Starr Life Science Corp., Oakmont, PA) attached to the thigh. Before the injection of a tracer, a transmission scan was performed with a 68Ge point source for attenuation and scatter correction of 511 keV photons. [^11C]LM229 was injected via the tail vein over 30 s, followed by a 15 s heparin–saline flush. Dynamic data were acquired in list mode for 90 min. Data were subsequently Fourier rebinned in following time frames: 12 × 5 s, 6 × 10 s, 3 × 20 s, 4 × 30 s, 5 × 60 s, 10 × 120 s, 12 × 5 min. Corrections were applied for randoms, dead time, normalization, attenuation, and decay. Fourier rebinning was used to compress the 4D sinograms to 3D before reconstruction with a 2D-filtered back projection with a Hann window cutoff at the Nyquist frequency. The image voxel size was 0.95 × 0.95 × 0.80 mm, with an array size of 128 × 128 × 95.
Three-dimensional volumes of interest (VOIs) for mice brain MRI template available on PMOD software (version 3.8; PMOD technologies, Zurich, Switzerland) were modified to obtain a whole brain VOI. […] The results were expressed as % injected dose per gram, assuming a specific gravity of 1 g·mL^–1 for brain tissue.

[10] = test system: tau tangles in transgenic mice expressing mutant human P301L tau; design: method as in PMID 27030397, PMID 23411393; details: in vitro and microPET in vivo imaging; cited from earlier work
[11] = test system: brainstem of P301S tau mice; design: method as in PMID 29930508; details: P301S tau mice vs WT; cited from earlier work

T2 sequence (P10636 1-441 isoform P10636-8): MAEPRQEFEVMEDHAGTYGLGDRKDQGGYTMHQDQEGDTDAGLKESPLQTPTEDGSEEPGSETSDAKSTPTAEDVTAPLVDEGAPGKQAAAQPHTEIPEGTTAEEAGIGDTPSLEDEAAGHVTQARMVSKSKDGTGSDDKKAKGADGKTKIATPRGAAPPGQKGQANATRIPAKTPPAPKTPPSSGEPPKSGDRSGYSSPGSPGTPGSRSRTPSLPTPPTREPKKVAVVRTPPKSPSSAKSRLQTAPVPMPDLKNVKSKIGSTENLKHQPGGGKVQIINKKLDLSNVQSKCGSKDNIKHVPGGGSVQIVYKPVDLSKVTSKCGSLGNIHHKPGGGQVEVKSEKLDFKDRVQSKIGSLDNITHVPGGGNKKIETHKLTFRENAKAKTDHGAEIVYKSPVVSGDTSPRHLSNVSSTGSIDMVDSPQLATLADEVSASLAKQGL
T1 sequence (P10636 1-441 isoform P10636-8): as above
T3 sequence (P10636 151-360 isoform P10636-5): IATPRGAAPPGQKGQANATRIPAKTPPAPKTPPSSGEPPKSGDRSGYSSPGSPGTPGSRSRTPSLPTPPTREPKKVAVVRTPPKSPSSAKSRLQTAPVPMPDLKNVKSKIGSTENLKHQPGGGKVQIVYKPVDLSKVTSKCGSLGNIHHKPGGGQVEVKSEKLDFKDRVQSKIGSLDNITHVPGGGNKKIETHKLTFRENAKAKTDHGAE
T5 sequence (P10636 1-383 isoform P10636-6 P243S): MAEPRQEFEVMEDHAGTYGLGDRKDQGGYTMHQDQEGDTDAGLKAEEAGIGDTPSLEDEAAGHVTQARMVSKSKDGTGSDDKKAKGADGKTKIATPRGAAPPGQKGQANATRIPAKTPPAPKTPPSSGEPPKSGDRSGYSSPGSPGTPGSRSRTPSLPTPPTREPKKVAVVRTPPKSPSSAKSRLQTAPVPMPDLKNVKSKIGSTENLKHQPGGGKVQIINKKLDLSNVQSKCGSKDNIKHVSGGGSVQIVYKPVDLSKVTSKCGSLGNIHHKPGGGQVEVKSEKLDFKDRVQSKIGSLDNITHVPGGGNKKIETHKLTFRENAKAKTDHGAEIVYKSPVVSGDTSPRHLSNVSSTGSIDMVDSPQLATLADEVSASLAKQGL
T4 sequence (P10636 468-708): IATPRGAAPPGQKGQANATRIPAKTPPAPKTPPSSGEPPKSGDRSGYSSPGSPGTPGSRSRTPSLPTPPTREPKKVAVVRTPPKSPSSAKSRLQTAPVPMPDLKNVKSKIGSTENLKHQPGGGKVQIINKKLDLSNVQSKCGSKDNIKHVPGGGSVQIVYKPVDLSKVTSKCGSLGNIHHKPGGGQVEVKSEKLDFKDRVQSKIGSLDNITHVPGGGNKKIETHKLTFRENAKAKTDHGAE

## Oc1ccc2nc(/C=C/C=C/c3ccc(F)nc3)sc2c1 [compound 148]
[1]
  Kd: 56 nM

## Fc1ccc(/C=C/C=C/c2nc3ccccc3s2)cn1 [compound 169]
Tau fibrils [2]
  Change of the MST data curve: no changes

## Oc1ccc2nc(/C=C/C=C/c3ccc(F)cn3)sc2c1 [compound 152]
[1]
  Kd: 353 nM

## CNc1ccc(/C=C/C=C/c2nc3ccc(O)cc3s2)cn1 [PBB3, reference compound]
[3]
  Preference between 3R and 4R tau inclusions in rat models: preferential binding toward the 3R tau inclusions
[4]
  Binding to pathological aggregated tau in SHR24 rat brain sections: bound with similar properties to pathological aggregated tau
Tau fibrils [5]
  Kd: 1.3 nM
[6]
  Binding to tau in SHR72 rat brain sections: bound to tau in brain sections from SHR72 rats
[7]
  Ex vivo binding in P301S tau brain tissue: significant nonspecific binding
[1]
  Kd: 1.4 nM
[8]
  Concentration at which binding to DRG neurons with tau aggregates was seen: 30 to 100 µM

## CNc1ccc(/C=C/C=C/c2nc3cc(OCCF)ccc3s2)cn1 [compound 236]
[1]
  Kd: 454 nM

## CNc1ccc(/C=C/C=C/c2nc3cc(F)c(OC)cc3s2)cn1 [compound 225]
[1]
  Kd: 1.1 nM

## Oc1ccc2sc(/C=C/C=C/c3ccc(F)cn3)nc2c1 [compound 166]
Tau fibrils [2]
  Change of the MST data curve: no changes

## [11CH3]Nc1ccc(/C=C/C=C/c2nc3cc(F)c(O)cc3s2)cn1 [[^11C]LM229]
[9]; P301S mouse
  Maximum brain uptake (%ID/g max): 2.38 %ID/g
[9]; WT and P301S mice
  Time of maximum brain uptake: within the first minute
[9]; WT mouse
  Maximum brain uptake (%ID/g max): 1.56 %ID/g

## Fc1ccc(/C=C/C=C/c2nc3ccccc3s2)nc1 [compound 164]
Tau fibrils [2]
  Change of the MST data curve: no changes

## [18F]c1ccc(-c2ccc3c(c2)[nH]c2ccncc23)cn1 [[^18F]T807]
[10]
  Specific binding to tau tangles in P301L tau mice: no specific binding
[11]
  Difference in retention in brainstem compared to control WT mice: no more than 23%
